Results: US8530652B2, “Pyrrolopyrazoles, potent kinase inhibitors” (Agouron Pharmaceuticals, Inc., priority 2005, dated 2013)

Assays:
[1] = target: PAK4 kinase activity in whole cells (TR-293-KDG, modified HEK 293 overexpressing GEF-H1b and PAK4 KD) (Homo sapiens (Human), UniProt O96013); assay: PAK4 cellular assay: sandwich ELISA of PAK4-dependent phosphorylation of GEF-H1b in TR-293-KDG cells; type: cell-based; details: doxycycline-induced, 3-hour exposure, phospho-GEF-H1b ELISA
Source text: A sandwich ELISA method was used to measure the PAK4 kinase activity in whole cells. The level of PAK4-dependent phosphorylation of GEF-H1b can be determined by monitoring the binding of a phosphospecific antibody to GEF-H1b. A modified HEK 293 cell line is used in the bioassay and it has been engineered to overexpress both GEF-H1b and the kinase domain (KD) of PAK4. The KD of PAK4 is inducible in this cell line by tetracycline (Trex system, Invitrogen). The name of this cell line has been designated TR-293-KDG. To establish a phosphorylation event on GEF-H1, cells are induced with doxycycline to express the PAK4 KD. […] Candidate substance effect is measured as the ability to block this phosphorylation event.
ELISA plate was prepared by pre-coating the plates with a capture antibody (α-HA-tag mouse monoclonal antibody), blocked with BSA, and washed in 0.1% tween 20 in tris-buffered saline (TBST). Tissue culture plates (precoated with poly-D-lysine) were seeded with TR-293-KDG cells. The TR-293-KDG Cells were induced to express the PAK4 KD with doxycycline overnight and subsequently & concomitantly treated with candidate substances or diluent for an additional 3-hour, continuous exposure. Cells were then lysed with a modified RIPA buffer supplemented with protease inhibitors. The fresh whole cell lysates were then added to the ELISA plate for 2-hours. Between all subsequent steps plates were washed 4 times with TBST. Detection antibody (recognizing the phospho-specific eptitope on GEF-H1b) was added for 1 hour, followed by addition of an enzyme linked goat α-rabbit secondary antibody for 45 minutes. […] EC50 values were calculated by sigmoid curve fitting using a four-parameter analysis.

[2] = target: PAK4 kinase domain (PAK4 KD) (Homo sapiens (Human), UniProt O96013); assay: PAK4 kinase domain enzymatic assay (coupled PK/LDH, NADH absorbance at 340 nm); type: biochemical; details: PAK4 kinase domain, 25 nM PAK4 KD, 0.04 mM ATP, pH 7.5
PAK4 kinase domain (PAK4 KD), sequence (O96013 321-572): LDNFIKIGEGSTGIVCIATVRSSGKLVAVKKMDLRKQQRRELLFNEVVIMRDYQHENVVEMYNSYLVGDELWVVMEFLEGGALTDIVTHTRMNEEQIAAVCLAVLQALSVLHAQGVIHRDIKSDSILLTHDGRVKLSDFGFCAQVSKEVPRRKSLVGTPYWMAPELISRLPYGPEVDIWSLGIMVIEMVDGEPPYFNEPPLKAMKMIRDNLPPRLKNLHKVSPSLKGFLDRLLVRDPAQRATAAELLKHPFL
Source text: Cloning, expression, and purification of recombinant PAK4 Kinase domain (PAK4 KD): The cDNA coding for PAK4 was amplified from the EST clone (#12) (purchased from Research Genetics) by using PCR. […] The PCR amplified product was cloned into Topo vector (Invitrogen Inc.), and verified by DNA sequencing. PAK4 KD was then subcloned into expression plasmid pET28a(+), pET24a(+), or pGST4.5. The recombinant plasmids containing PAK4 KD was transformed into BL21(DE3) cells for recombinant protein expression. […] The cells were then harvested and lyzed for protein purification. Ni-NTA column (pET28a(+), pET24a(+)) and glutathione column (pGST4.5) were used for the purification.
PAK4 kinase domain enzymatic assay conditions: the enzymatic activity of PAK4 KD was measured by its ability to catalyze the transfer of a phosphate residue from a nucleoside triphosphate to an amino acid side chain of a commercially available peptide (amino acid sequence […]). The conversion of ATP to ADP accompanies the catalytic reaction. The PAK4 KD catalyzed production of ADP from ATP was coupled to the oxidation of NADH through the activities of pyruvate kinase (PK) and lactate dehydrogenase (LDH). The conversion of NADH to NAD^+ is monitored by the decrease in absorbance at 340 nm (e340=6.22 cm^−1mM^−1) using a Molecular Devices SPECTRAMAX 190 in conjunction with the Biomec FX. Typical reaction solutions contain 2 mM phosphoenolpyruvate, 0.35 mM NADH, 10 mM MgCl2, 1 mM DTT, 0.4 mM peptide ([…]) 0.04 mM ATP, 1 units/mL PK, 1 units/mL LDH, 0.01% Tween 20 in 50 mM HEPES, pH 7.5. […] The PAK KD Ki of each compound of the invention (the inhibitor) was calculated based on multiple of Percent Inhibition numbers of the inhibitor at different inhibitor concentrations. The peptide (amino sequence […]) was purchased from American Peptide Company. NADH, MgCl2, HEPES, DTT, ATP and PK/LDH were purchased from Sigma. Tween 20 was purchased from Calbiochem.

PAK4 kinase activity in whole cells (TR-293-KDG, modified HEK 293 overexpressing GEF-H1b and PAK4 KD), sequence (O96013 321-572): as above

Row | EC50 [1] | Ki [2] | Structure (SMILES)
1 | > 4000 nM | 87 nM | CCCOc1nc(Cl)nc(Nc2n[nH]c3c2CN(C(=O)N[C@@H]2C[C@H]2c2ccccc2)C3(C)C)n1 (relative stereo) [Example 7, 3-[(4-chloro-6-propoxy-1,3,5-triazin-2-yl)amino]-6,6-dimethyl-N-[trans-2-phenylcyclopropyl]-4,6-dihydropyrrolo[3,4-c]pyrazole-5(1H)-carboxamide]
2 | > 4000 nM | 140 nM | CN(C)c1nc(Nc2n[nH]c3c2CN(C(=O)NC2C[C@@H]2c2ccccc2)C3(C)C)nc(N2CCC[C@H]2CO)n1 (stereo partly drawn) [Example 23, 3-({4-(dimethylamino)-6-[(2S)-2-(hydroxymethyl)pyrrolidin-1-yl]-1,3,5-triazin-2-yl}amino)-6,6-dimethyl-N-[trans-2-phenylcyclopropyl]-4,6-dihydropyrrolo[3,4-c]pyrazole-5(1H)-carboxamide]
3 | < 3.9 nM | 170 nM | COc1ncc(F)c(Nc2n[nH]c3c2CN(C(=O)N[C@H](CN(C)C)c2ccccc2)C3(C)C)n1 [Example 66, N-[(1S)-2-(dimethylamino)-1-phenylethyl]-3-[(5-fluoro-2-methoxypyrimidin-4-yl)amino]-6,6-dimethyl-4,6-dihydropyrrolo[3,4-c]pyrazole-5(1H)-carboxamide]
4 | 31 nM | 18 nM | CC1(C)c2[nH]nc(Nc3ncnc4ccsc34)c2CN1C(=O)N[C@@H]1C[C@H]1c1ccccc1 [Example 51, 6,6-dimethyl-N-[(1R,2S)-2-phenylcyclopropyl]-3-(thieno[3,2-d]pyrimidin-4-ylamino)-4,6-dihydropyrrolo[3,4-c]pyrazole-5(1H)-carboxamide]
5 | < 3.9 nM | 39 nM | COc1ncc(F)c(Nc2n[nH]c3c2CN(C(=O)O[C@H](CN(C)C)c2ccccc2)C3(C)C)n1 [Example 79, (1S)-2-(dimethylamino)-1-phenylethyl 3-[(5-fluoro-2-methoxypyrimidin-4-yl)amino]-6,6-dimethyl-4,6-dihydropyrrolo[3,4-c]pyrazole-5(1H)-carboxylate]
6 | 4.4 nM | 16 nM | CCOc1ncc(F)c(Nc2n[nH]c3c2CN(C(=O)O[C@H](CN(C)C)c2ccccc2)C3(C)C)n1 [Example 72, (1S)-2-(dimethylamino)-1-phenylethyl 3-[(2-ethoxy-5-fluoropyrimidin-4-yl)amino]-6,6-dimethyl-4,6-dihydro-pyrrolo[3,4-c]pyrazole-5(1H)-carboxylate]
7 | < 3.9 nM | 1.6 nM | Cc1nc(Nc2n[nH]c3c2CN(C(=O)O[C@H](CN(C)C)c2ccccc2)C3(C)C)c2sccc2n1 [Example 73, (1S)-2-(dimethylamino)-1-phenylethyl 6,6-dimethyl-3-[(2-methylthieno[3,2-d]pyrimidin-4-yl)amino]-4,6-dihydropyrrolo[3,4-c]pyrazole-5(1H)-carboxylate]
8 | 67.1 nM | 680 nM | Cc1nccc(Nc2n[nH]c3c2CN(C(=O)N[C@H](CN(C)C)c2ccccc2)C3(C)C)n1 [Example 65, N-[(1S)-2-(dimethylamino)-1-phenylethyl]-6,6-dimethyl-3-[(2-methylpyrimidin-4-yl)amino]-4,6-dihydropyrrolo[3,4-c]pyrazole-5(1H)-carboxamide]
9 | < 3.9 nM | 40 nM | CN(C)C[C@@H](NC(=O)N1Cc2c(Nc3ccnc(C#N)n3)n[nH]c2C1(C)C)c1ccccc1 [Example 60, 3-[(2-cyanopyrimidin-4-yl)amino]-N-[(1S)-2-(dimethylamino)-1-phenylethyl]-6,6-dimethyl-4,6-dihydropyrrolo[3,4-c]pyrazole-5(1H)-carboxamide]
10 | 84 nM | 58 nM | CN(C)C[C@@H](NC(=O)N1Cc2c(Nc3ncnc4ccoc34)n[nH]c2C1(C)C)c1ccccc1 [Example 83, N-[(1S)-2-(dimethylamino)-1-phenylethyl]-3-(furo[3,2-d]pyrimidin-4-ylamino)-6,6-dimethyl-4,6-dihydropyrrolo[3,4-c]pyrazole-5(1H)-carboxamide]
11 | < 3.9 nM | 3.6 nM | CN(C)C[C@@H](OC(=O)N1Cc2c(Nc3nc(C#N)nc4ccccc34)n[nH]c2C1(C)C)c1ccccc1 [Example 74, (1S)-2-(dimethylamino)-1-phenylethyl 3-[(2-cyanoquinazolin-4-yl)amino]-6,6-dimethyl-4,6-dihydropyrrolo[3,4-c]pyrazole-5(1H)-carboxylate]
12 | 1270 nM | 76 nM | COc1nc(Nc2n[nH]c3c2CN(C(=O)NC2C[C@@H]2c2ccccc2)C3(C)C)nc(N2CCC[C@H]2CO)n1 (stereo partly drawn) [Example 16, 3-({4-[(2S)-2-(hydroxymethyl)pyrrolidin-1-yl]-6-methoxy-1,3,5-triazin-2-yl}amino)-6,6-dimethyl-N-[trans-2-phenylcyclopropyl]-4,6-dihydropyrrolo[3,4-c]pyrazole-5(1H)-carboxamide]
13 | 500 nM | 90 nM | CN(C)c1nc(Cl)nc(Nc2n[nH]c3c2CN(C(=O)N[C@@H]2C[C@H]2c2ccccc2)C3(C)C)n1 (relative stereo) [Example 15, 3-{[4-chloro-6-(dimethylamino)-1,3,5-triazin-2-yl]amino}-6,6-dimethyl-N-[trans-2-phenylcyclopropyl]-4,6-dihydropyrrolo [3,4-c]pyrazole-5(1H)-carboxamide]
14 | 455 nM | 34 nM | Cc1nc(Nc2n[nH]c3c2CN(C(=O)N[C@@H]2C[C@H]2c2ccccc2)C3(C)C)c2ccccc2n1 (relative stereo) [Example 84, 3-[(2-methylquinazolin-4-yl)amino]-6,6-dimethyl-N-[trans-2-phenylcyclopropyl]-4,6-dihydropyrrolo[3,4-c]pyrazole-5(1H)-carboxamide]
15 | 1740 nM | 67 nM | CC1(C)c2[nH]nc(Nc3ncnc4ccoc34)c2CN1C(=O)N[C@H]1C[C@@H]1c1ccccc1 (relative stereo) [Example 53, 3-(furo[3,2-d]pyrimidin-4-ylamino)-6,6-dimethyl-N-(trans-2-phenylcyclopropyl)-4,6-dihydropyrrolo[3,4-c]pyrazole-5(1H)-carboxamide]
16 | < 3.9 nM | 8.3 nM | CN(C)C[C@@H](OC(=O)N1Cc2c(Nc3ccnc(C(F)(F)F)n3)n[nH]c2C1(C)C)c1ccccc1 [Example 76, (1S)-2-(dimethylamino)-1-phenylethyl 6,6-dimethyl-3-{[2-(trifluoromethyl)pyrimidin-4-yl]amino}-4,6-dihydropyrrolo[3,4-c]pyrazole-5(1H)-carboxylate]
17 | > 4000 nM | – | Cn1cnc2c(Nc3n[nH]c4c3CN(C(=O)N[C@@H]3C[C@H]3c3ccccc3)C4(C)C)ncnc21 (relative stereo) [Example 36, 6,6-dimethyl-3-[(9-methyl-9H-purin-6-yl)amino]-N-[trans-2-phenylcyclopropyl]-4,6-dihydropyrrolo[3,4-c]pyrazole-5(1H)-carboxamide]
18 | > 4000 nM | – | Cc1nccc(Nc2n[nH]c3c2CN(C(=O)N[C@@H]2C[C@H]2c2ccccc2)C3(C)C)n1 (relative stereo) [Example 39, 6,6-dimethyl-3-[(2-methylpyrimidin-4-yl)amino]-N-[trans-2-phenylcyclopropyl]-4,6-dihydropyrrolo[3,4-c]pyrazole-5(1H)-carboxamide]
19 | > 4000 nM | – | CN(C)C[C@@H](NC(=O)N1Cc2c(Nc3ccnc(C(F)(F)F)n3)n[nH]c2C1(C)C)c1ccccc1 [Example 55, N-[(1S)-2-(dimethylamino)-1-phenylethyl]-6,6-dimethyl-3-{[2-(trifluoromethyl)pyrimidin-4-yl]amino}-4,6-dihydropyrrolo[3,4-c]pyrazole-5(1H)-carboxamide]
